Measurements as given in US8501992B2, “Hydroxyphenyl sulfonamides as antiapoptotic bcl inhibitors” (Bristol-Myers Squibb Company, priority 2008, dated 2013).

Experiments:
Format in all cases: binding
[1] = target: T1, Bcl-2 (Homo sapiens, UniProt P10415); experiment: Bcl2/Bim fluorescence polarization assay (FPA); details: BIM BH3 peptide 5 nM, Bcl-2 11 nM, Ki calculated from FPA data
T1 construct: without their C-terminal transmembrane domain; GST; made in house
Source text: (§1) Compounds were profiled for their ability to disrupt in vitro binding interactions in fluorescence polarization assays (FPAs) using synthetic fluorochrome-labeled Bcl homology 3 (BH3) peptides derived from BIM [(FAM)-Ahx-[…]-NH2 (SEQ ID NO: 1) (GenBank Accession No. O43521)] or BAK [Ac-GQVGRQLAIIGE-LYS(FAM)-INR-NH2 (SEQ ID NO:2) (GenBank Accession No. Q16611) amino acid sequences and four bacterial recombinant proteins [Bcl-b (GenBank Accession No. Q9HD36), Bcl-2 (GenBank Accession No. P10415), Bcl-Xl (GenBank Accession No. Q07817), Mcl-1 (GenBank Accession No. Q07820)] without their C-terminal transmembrane domain. Proteins were purified from bacterial lysates using their glutathione S-transferase (GST)-tag (Bcl-b, Bcl-2, Mcl-1) or His6-tag (Bcl-Xl) and following one-step affinity chromatography procedures. Dissociation constants (Kd) for peptide binding protein were determined by fluorescence polarization in FPAs measuring BIM BH3 peptide binding Bcl-b, Mcl-1 or Bcl-2 protein or BAK BH3 peptide binding Bcl-Xl protein. The Kd values were generated by fitting the experimental data using a sigmoidal dose-response nonlinear regression model.
(§2) Compound inhibitory concentration values, IC50 (50% reduction in fluorescence polarization), were determined using fluorochrome-labeled BH3 peptides and recombinant Bcl proteins in fluorescence polarization assays (FPAs). Compounds diluted in DMSO (0.5 ul) were transferred (in duplicate) to individual wells of a 384-well plate. The fluorochrome-labeled peptide was added followed by recombinant protein addition. Each binding FPA reaction (50 ul) contained BIM BH3 peptide (5 nM) or BAK BH3 peptide (1.5 nM) and Bcl-b (40 nM), Mcl-1 (28 nM), Bcl-2 (11 nM) or Bcl-Xl. (5 nM) protein suspended in assay buffer [20 mM sodium phosphate, pH 7.4, 1 mM EDTA, 50 mM NaCl., 0.05% Pluronic F68]. Reaction mixtures were incubated at ambient temperature for 60 minutes prior to measuring polarization (mP) using an Analyst (LJL, Molecular Devices, Sunnyvale, Calif.) programmed to detect an emission wavelength of 530 nm after excitation (excitation wavelength=485 nm).
(§3) Competitive compound inhibition constants (Ki) were calculated using FPA experimental data and a mathematical equation, Ki=[I]50/([L]50/Kd+[P]0/Kd+1), where [I]50 denotes free inhibitor concentration at 50% inhibition, [L]50 is free labeled ligand concentration at 50% inhibition, [P]0 is free protein concentration at 0% inhibition, and Kd is the dissociation constant of the protein-ligand complex.

[2] = target: T2, Bcl-b (Homo sapiens, UniProt Q9HD36); experiment: Bclb/Bim fluorescence polarization assay (FPA); details: BIM BH3 peptide 5 nM, Bcl-b 40 nM, Ki calculated from FPA data
T2 construct: without their C-terminal transmembrane domain; GST; made in house
T2 sequence (Q9HD36 1-182 limits assumed): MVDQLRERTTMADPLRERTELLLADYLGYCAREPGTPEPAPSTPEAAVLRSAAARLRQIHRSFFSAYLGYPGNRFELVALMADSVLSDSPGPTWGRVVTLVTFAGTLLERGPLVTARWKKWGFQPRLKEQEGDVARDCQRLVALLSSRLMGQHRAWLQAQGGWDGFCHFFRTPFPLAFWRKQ
Source text: as §1, §2, §3

[3] = target: T3, Mcl-1 (Homo sapiens, UniProt Q07820); experiment: Mcl-1/Bim fluorescence polarization assay (FPA); details: BIM BH3 peptide 5 nM, Mcl-1 28 nM, Ki calculated from FPA data
T3 construct: without their C-terminal transmembrane domain; GST; made in house
Source text: as §1, §2, §3

T1 sequence (P10415 1-211 limits assumed): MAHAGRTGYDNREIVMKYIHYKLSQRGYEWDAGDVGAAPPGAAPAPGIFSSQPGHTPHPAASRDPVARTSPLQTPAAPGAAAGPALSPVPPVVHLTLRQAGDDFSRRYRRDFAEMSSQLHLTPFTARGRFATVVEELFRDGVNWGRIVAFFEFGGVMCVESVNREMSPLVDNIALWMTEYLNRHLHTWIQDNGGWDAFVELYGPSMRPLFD
T3 sequence (Q07820 1-327 limits assumed): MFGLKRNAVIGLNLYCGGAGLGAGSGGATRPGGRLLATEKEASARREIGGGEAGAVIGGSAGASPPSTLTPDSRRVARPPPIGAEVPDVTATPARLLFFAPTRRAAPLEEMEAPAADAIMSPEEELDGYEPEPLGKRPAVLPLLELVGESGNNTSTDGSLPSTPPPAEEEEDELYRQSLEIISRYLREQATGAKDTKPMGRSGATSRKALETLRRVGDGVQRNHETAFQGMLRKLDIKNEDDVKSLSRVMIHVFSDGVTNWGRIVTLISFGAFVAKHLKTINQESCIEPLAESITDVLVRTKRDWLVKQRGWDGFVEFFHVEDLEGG

| Ki [1] | Ki [2] | Ki [3] | SMILES |
| --- | --- | --- | --- |
| 170 nM | 30 nM | 30 nM | COc1c(Cl)cc(CN(CCn2ccc3ccccc32)S(=O)(=O)c2cc(C(=O)NCc3ccccc3)cc(Cl)c2O)cc1-c1ccc(Cl)cc1 [Example 222, 3-(N-(2-(1H-Indol-1-yl)ethyl)-N-((4′,5-dichloro-6-methoxybiphenyl-3-yl)methyl)sulfamoyl)-N-benzyl-5-chloro-4-hydroxybenzamide] |
| 3730 nM | 500 nM | 2280 nM | COC(=O)c1cc(Cl)cc(S(=O)(=O)N(Cc2ccc(F)cc2)Cc2cccc(-c3ccc(Cl)cc3)c2)c1O [Example 226, Methyl 5-chloro-3-(N-((4′-chloro-biphenyl-3-yl)methyl)-N-(4-fluorobenzyl)sulfamoyl)-2-hydroxybenzoate] |
| 90 nM | 90 nM | 50 nM | O=S(=O)(c1cc(Cl)cc(Cl)c1O)N(Cc1ccc(F)cc1)Cc1cccc(-c2ccc(Cl)cc2)c1 [Example 232, 3,5-Dichloro-N-((4′-chlorobiphenyl-3-yl)methyl)-N-(4-fluorobenzyl)-2-hydroxybenzenesulfonamide] |
| 80 nM | 60 nM | 40 nM | CCCCCCCCc1ccc(CN(Cc2cccc(Oc3ccc(F)cc3)c2)S(=O)(=O)c2cc(Cl)cc(Cl)c2O)cc1 [Example 235, 3,5-Dichloro-N-(3-(4-fluorophenoxy)benzyl)-2-hydroxy-N-(4-octylbenzyl)benzenesulfonamide] |
| 120 nM | 110 nM | 470 nM | COc1c(CN(Cc2ccc(F)cc2)S(=O)(=O)c2cc(Cl)cc(Cl)c2O)cccc1-c1ccc(Cl)cc1 [Example 240, 3,5-Dichloro-N-((4′-chloro-2-methoxybiphenyl-3-yl)methyl)-N-(4-fluorobenzyl)-2-hydroxybenzenesulfonamide] |
| 130 nM | 140 nM | 2120 nM | CCCCc1ccc(-c2cccc(CN(Cc3ccc(F)cc3)S(=O)(=O)c3cc(Cl)cc(Cl)c3O)c2)cc1 [Example 256, N-((4′-Butylbiphenyl-3-yl)methyl)-3,5-dichloro-N-(4-fluorobenzyl)-2-hydroxybenzenesulfonamide] |
| 720 nM | 300 nM | 1680 nM | Cc1cccc(CN(Cc2ccc(F)cc2)S(=O)(=O)c2cc(Cl)cc(Cl)c2O)c1 [Example 266, 3,5-Dichloro-N-(4-fluorobenzyl)-2-hydroxy-N-(3-methylbenzyl)benzenesulfonamide] |
| 520 nM | 450 nM | 1570 nM | O=S(=O)(c1cc(Cl)cc(Cl)c1O)N(Cc1ccc(Cl)cc1)Cc1cccc(-c2ccc(Cl)cc2)n1 [Example 274, 3,5-Dichloro-N-(4-chlorobenzyl)-N-((6-(4-chlorophenyl)pyridin-2-yl)methyl)-2-hydroxybenzenesulfonamide] |
